For three molecules, IC50 results are on record in patent US9340590B2 (priority 2011, dated 2016).

Common to all, as to assay: cell-based
One experiment has as its target hNav1.7 (Homo sapiens, UniProt Q15858). Type of experiment: cell-based. The following applies: IonWorks Quattro, use-dependent protocol, hNav1.7; read-out: IWQ Use Nav1.7.
A further experiment addresses hNav1.5 (Homo sapiens, UniProt Q14524).
The target of a further experiment is hNav1.3 (Homo sapiens, UniProt Q9NY46). The conditions noted are these: IonWorks Quattro, use-dependent protocol, hNav1.3; read-out: IWQ Use Nav1.3.
Setting [1] is: IonWorks Quattro, use-dependent protocol, hNav1.5, read-out: IWQ Use Nav1.5.

Structures are written as SMILES. Like-named read-outs stand apart in the source and are kept apart here. Positions of bridges follow the written chain, without caps; N, C: chain ends. Residues, ends and D or L forms follow the SMILES beside them.

Chain of hNav1.3 (Q9NY46 whole entry, looked up): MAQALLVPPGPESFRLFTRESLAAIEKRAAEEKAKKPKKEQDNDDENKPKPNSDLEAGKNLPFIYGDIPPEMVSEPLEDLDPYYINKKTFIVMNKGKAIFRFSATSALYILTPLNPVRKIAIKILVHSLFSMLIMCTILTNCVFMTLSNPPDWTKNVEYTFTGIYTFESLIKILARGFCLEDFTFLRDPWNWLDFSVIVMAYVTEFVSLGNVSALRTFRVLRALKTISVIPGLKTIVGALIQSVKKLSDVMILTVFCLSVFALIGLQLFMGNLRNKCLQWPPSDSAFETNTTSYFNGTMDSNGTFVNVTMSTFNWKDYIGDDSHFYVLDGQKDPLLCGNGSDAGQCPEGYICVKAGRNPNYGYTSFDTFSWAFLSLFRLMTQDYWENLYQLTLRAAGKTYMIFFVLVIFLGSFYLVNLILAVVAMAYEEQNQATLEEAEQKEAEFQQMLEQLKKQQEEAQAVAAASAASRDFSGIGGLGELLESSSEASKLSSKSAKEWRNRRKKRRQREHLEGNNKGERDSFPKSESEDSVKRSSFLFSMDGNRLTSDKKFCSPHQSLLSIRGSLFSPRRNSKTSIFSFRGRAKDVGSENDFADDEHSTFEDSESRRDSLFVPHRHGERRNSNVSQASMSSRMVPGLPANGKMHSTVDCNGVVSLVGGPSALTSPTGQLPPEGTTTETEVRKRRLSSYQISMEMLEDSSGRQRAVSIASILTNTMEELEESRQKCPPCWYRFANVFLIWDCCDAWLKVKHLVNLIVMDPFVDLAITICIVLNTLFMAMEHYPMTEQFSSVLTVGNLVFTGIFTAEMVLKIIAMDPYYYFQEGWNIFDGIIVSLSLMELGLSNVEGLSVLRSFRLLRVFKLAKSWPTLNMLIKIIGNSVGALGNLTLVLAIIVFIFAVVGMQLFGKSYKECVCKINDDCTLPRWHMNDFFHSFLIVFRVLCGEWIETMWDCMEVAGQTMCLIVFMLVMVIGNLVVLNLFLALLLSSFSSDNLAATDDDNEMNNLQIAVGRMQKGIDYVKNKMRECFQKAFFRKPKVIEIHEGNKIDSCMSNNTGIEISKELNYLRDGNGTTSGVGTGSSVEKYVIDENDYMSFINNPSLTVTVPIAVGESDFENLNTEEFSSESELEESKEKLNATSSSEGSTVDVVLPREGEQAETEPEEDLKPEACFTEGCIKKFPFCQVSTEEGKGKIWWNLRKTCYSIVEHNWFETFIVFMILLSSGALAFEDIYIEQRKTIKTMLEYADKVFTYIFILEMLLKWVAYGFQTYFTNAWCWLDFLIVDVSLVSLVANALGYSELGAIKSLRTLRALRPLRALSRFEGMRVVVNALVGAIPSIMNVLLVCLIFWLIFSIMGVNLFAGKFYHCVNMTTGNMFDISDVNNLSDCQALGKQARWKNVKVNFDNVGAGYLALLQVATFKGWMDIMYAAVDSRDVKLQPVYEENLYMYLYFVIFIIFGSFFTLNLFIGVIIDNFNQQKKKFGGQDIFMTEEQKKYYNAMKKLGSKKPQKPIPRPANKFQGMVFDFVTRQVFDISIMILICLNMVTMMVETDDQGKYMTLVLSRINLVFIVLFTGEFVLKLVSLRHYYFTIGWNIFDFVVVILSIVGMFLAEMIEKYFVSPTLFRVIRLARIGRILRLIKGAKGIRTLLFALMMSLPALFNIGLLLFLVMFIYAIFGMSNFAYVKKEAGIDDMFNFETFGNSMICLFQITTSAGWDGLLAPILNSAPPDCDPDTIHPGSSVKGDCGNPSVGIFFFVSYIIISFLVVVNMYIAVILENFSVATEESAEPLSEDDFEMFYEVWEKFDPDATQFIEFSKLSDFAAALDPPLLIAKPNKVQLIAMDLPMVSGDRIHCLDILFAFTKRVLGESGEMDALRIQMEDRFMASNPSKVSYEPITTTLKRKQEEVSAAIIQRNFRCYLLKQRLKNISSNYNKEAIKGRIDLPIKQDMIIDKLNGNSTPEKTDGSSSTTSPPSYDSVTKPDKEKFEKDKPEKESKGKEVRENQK
Chain of hNav1.5 (Q14524 whole entry, looked up): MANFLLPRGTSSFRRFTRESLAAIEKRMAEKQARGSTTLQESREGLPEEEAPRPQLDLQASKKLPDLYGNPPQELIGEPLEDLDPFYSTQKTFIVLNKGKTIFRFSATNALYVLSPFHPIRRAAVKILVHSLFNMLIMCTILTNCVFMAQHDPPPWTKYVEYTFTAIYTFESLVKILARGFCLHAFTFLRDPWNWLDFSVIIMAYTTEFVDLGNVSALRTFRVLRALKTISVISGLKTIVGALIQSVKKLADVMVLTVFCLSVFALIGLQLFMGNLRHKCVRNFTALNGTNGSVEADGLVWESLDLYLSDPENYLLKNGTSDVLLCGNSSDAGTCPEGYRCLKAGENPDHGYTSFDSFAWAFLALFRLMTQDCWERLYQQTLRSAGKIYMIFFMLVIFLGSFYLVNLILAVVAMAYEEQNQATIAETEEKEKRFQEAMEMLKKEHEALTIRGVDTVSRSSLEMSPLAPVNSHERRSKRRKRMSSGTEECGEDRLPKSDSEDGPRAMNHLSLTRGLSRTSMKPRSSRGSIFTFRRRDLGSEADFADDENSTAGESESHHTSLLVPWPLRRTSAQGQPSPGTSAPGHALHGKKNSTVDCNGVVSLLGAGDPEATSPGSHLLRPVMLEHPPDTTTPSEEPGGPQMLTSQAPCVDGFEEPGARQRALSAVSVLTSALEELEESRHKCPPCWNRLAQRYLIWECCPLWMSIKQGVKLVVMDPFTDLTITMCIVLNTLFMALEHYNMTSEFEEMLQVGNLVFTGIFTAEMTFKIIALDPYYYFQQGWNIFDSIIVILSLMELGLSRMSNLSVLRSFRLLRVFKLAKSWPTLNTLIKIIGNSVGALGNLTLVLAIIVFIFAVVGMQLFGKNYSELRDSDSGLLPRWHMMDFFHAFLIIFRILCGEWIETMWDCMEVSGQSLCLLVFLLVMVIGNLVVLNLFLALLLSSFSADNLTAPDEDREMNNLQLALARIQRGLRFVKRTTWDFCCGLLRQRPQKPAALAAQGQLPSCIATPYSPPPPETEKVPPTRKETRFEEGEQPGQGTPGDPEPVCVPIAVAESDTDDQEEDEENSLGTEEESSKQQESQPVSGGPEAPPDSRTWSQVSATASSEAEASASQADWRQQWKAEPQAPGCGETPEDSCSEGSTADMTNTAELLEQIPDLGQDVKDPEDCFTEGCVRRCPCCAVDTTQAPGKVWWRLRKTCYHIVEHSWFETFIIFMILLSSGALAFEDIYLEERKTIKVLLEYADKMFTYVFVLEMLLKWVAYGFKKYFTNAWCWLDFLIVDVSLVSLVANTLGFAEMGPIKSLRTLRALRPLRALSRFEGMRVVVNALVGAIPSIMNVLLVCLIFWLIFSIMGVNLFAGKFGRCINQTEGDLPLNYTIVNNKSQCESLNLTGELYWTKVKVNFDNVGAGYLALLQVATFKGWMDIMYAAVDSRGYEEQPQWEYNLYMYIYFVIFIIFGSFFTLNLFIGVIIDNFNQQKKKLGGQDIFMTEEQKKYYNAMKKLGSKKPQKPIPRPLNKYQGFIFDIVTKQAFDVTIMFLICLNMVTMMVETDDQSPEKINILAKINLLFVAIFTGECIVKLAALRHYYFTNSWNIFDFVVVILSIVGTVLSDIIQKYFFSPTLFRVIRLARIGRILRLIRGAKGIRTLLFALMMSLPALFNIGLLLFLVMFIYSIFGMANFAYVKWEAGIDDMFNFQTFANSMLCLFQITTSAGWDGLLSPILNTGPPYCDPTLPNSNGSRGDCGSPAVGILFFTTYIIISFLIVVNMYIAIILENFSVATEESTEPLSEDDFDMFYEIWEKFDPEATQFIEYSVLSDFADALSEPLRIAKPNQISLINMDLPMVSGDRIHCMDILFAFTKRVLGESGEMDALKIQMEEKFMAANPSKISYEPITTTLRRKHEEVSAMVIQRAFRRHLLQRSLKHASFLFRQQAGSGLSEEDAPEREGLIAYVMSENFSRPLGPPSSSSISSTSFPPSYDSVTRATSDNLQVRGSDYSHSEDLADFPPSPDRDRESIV

For the molecule `CC[C@H](C)[C@@H]1NC(=O)[C@@H]2CSSC[C@@H]3NC(=O)[C@H](C(C)C)NC(=O)[C@H](CC(C)C)NC(=O)[C@H](CC(N)=O)NC(=O)[C@@H]4CCCN4C(=O)[C@H](CCCNC(=N)N)NC(=O)[C@H](CSSC[C@H](NC(=O)[C@@H](N)CC(=O)O)C(=O)N[C@@H](CC(C)C)C(=O)NCC(=O)N[C@@H](CCSC)C(=O)N[C@@H](CC(C)C)C(=O)N[C@@H](CCCNC(=N)N)C(=O)N[C@@H](CCCCN)C(=O)N2)NC(=O)[C@H](CSSC[C@@H](C(=O)N[C@@H](CCCCN)C(=O)N[C@@H](Cc2ccc(O)cc2)C(=O)N[C@H](C(=O)N[C@@H](Cc2ccccc2)C(N)=O)C(C)C)NC(=O)[C@H](Cc2c[nH]c4ccccc24)NC(=O)[C@H](CCCCN)NC(=O)[C@H](Cc2c[nH]cn2)NC(=O)[C@H]([C@@H](C)O)NC(=O)[C@H](CCCNC(=N)N)NC(=O)[C@H](CO)NC3=O)NC(=O)[C@H](CCCCN)NC(=O)[C@H](CC(=O)O)NC(=O)[C@H](CC(N)=O)NC(=O)[C@H](CC(=O)O)NC(=O)[C@@H]2CCCN2C1=O` [compound 641] (H-DCLGMLRKCIPDNDKCCRPNLVCSRTHKWCKYVF-NH2; disulfide 2-17, 9-23, 16-30), the values for the IC50 at hNav1.7, on hNav1.5 (IWQ Use Nav1.5) and on hNav1.3 were 0.069 µM, over 5 µM and 0.24 µM, respectively.

On to `CC[C@H](C)[C@@H]1NC(=O)[C@@H]2CSSC[C@@H]3NC(=O)[C@H](C(C)C)NC(=O)[C@H](CC(C)C)NC(=O)[C@H](CC(N)=O)NC(=O)[C@@H]4CCCN4C(=O)[C@H](CCCNC(=N)N)NC(=O)[C@H](CSSC[C@H](NC(=O)[C@@H](N)CC(=O)O)C(=O)N[C@@H](CC(C)C)C(=O)NCC(=O)N[C@@H](Cc4cccnc4)C(=O)N[C@@H](CC(C)C)C(=O)N[C@@H](CCCNC(=N)N)C(=O)N[C@@H](CCCCN)C(=O)N2)NC(=O)[C@H](CSSC[C@@H](C(=O)N[C@@H](CCCCN)C(=O)N[C@@H](Cc2ccc(O)cc2)C(=O)N[C@H](C(=O)N[C@@H](Cc2ccccc2)C(N)=O)C(C)C)NC(=O)[C@H](Cc2c[nH]c4ccccc24)NC(=O)[C@H](CCCCN)NC(=O)[C@H](Cc2c[nH]cn2)NC(=O)[C@H]([C@@H](C)O)NC(=O)[C@H](CCCNC(=N)N)NC(=O)[C@H](CO)NC3=O)NC(=O)[C@H](CCCCN)NC(=O)[C@H](CC(=O)O)NC(=O)[C@H](CC(N)=O)NC(=O)[C@H](CC(=O)O)NC(=O)[C@@H]2CCCN2C1=O` [compound 642], for which the IC50 at hNav1.7 is 1.7 µM; at hNav1.5 (setting [1]) it was over 5 µM; on hNav1.3 it was 3.9 µM.

For `CC[C@H](C)[C@@H]1NC(=O)[C@@H]2CSSC[C@@H]3NC(=O)[C@H](C(C)C)NC(=O)[C@H](CC(C)C)NC(=O)[C@H](CC(N)=O)NC(=O)[C@@H]4CCCN4C(=O)[C@H](CCCNC(=N)N)NC(=O)[C@H](CSSC[C@H](NC(=O)[C@@H](N)CC(=O)O)C(=O)N[C@@H](CC(C)C)C(=O)NCC(=O)N[C@@H](CO)C(=O)N[C@@H](CC(C)C)C(=O)N[C@@H](CCCNC(=N)N)C(=O)N[C@@H](CCCCN)C(=O)N2)NC(=O)[C@H](CSSC[C@@H](C(=O)N[C@@H](CCCCN)C(=O)N[C@@H](Cc2ccc(O)cc2)C(=O)N[C@H](C(=O)N[C@@H](Cc2ccccc2)C(N)=O)C(C)C)NC(=O)[C@H](Cc2c[nH]c4ccccc24)NC(=O)[C@H](CCCCN)NC(=O)[C@H](Cc2c[nH]cn2)NC(=O)[C@H]([C@@H](C)O)NC(=O)[C@H](CCCNC(=N)N)NC(=O)[C@H](CO)NC3=O)NC(=O)[C@H](CCCCN)NC(=O)[C@H](CC(=O)O)NC(=O)[C@H](CC(N)=O)NC(=O)[C@H](CC(=O)O)NC(=O)[C@@H]2CCCN2C1=O` [compound 643] (H-DCLGSLRKCIPDNDKCCRPNLVCSRTHKWCKYVF-NH2; disulfide 2-17, 9-23, 16-30), the IC50 at hNav1.7 was 1.3 µM; on hNav1.5 (setting [1]), over 5 µM; on hNav1.3 it was 3.2 µM.
